Test results reported in US5830885A, “Antiproliferative vitamin D3 hybrids” (The Johns Hopkins University, priority 1996, dated 1998).
Values joined by “and” are separate entries in the source; they are usually repeats but may differ in a detail not shown here. Equal entries are not always repeated. “Also recorded” adds a separate entry of the source.

How the values were obtained:
[1] = Crystallization behaviour; format: physicochemical
cell proliferation = assay: Anti-proliferative activity (summary statements); format: cell-based; conditions: compared with calcitriol or in general words
[2] = Solubility in organic solvents; format: physicochemical; conditions: methylene chloride, chloroform, methanol; for YA/YB also EtOAc, acetone
calf thymus VDR = target: T1, calf thymus VDR (Bos taurus, UniProt Q28037); assay: VDR binding assay, displacement of [^3 H]-1,25(OH)2 D3 from VDR; conditions: for binding to the 1,25(OH)2-vitamin D3 receptor (VDR), % of calcitriol's binding / VDR binding affinity relative to that of calcitriol: relative to calcitriol; for Amount Bound (amount that results in 50% displacement of [^3 H]-1,25(OH)2 D3 from VDR): Table 6, calf thymus VDR; for times less strongly bound to VDR than 1,25(OH)2 D3: relative to 1,25(OH)2 D3
T1 construct: from the calf thymus VDR; from tissue; host or cells: calf thymus
T1 sequence (Q28037 1-426): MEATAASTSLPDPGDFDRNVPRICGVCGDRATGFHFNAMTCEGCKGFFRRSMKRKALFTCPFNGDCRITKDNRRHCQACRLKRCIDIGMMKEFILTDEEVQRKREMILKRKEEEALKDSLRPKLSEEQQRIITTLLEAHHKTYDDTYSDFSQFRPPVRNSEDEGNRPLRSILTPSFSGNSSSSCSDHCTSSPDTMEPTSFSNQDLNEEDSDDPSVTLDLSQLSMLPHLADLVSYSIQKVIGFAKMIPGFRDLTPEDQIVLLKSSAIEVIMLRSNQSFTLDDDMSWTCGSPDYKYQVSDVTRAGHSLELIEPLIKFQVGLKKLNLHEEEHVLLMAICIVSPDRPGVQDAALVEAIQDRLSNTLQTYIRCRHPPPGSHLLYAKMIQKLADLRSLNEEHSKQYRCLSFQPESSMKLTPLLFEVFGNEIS
Description: The VDR binding assay was performed according to the procedure of Reinhardt, T. A., Horst, R. L., Orf, J. W., Hollis, B. W., J. Clin. Endocrin. Metab., 58: 91-98 (1984), the entire contents of which are hereby incorporated herein by reference.

keratinocyte = assay: Dose-response effects on keratinocyte proliferation (FIGS. 3, 4, 9, 10); format: cell-based; conditions: cell numbers at 0 and 96 hours
Description: N0 represents the number of cells at zero hours and N1 represents the number of cells at 96 hours.

U 937 cancer cells [3] = assay: Induction of cell differentiation in U 937 cancer cells (Table 5); format: cell-based, human; conditions: at a concentration of 10^-8 M
[4] = system: ornithine decarboxylase (ODC); assay: Inhibition of TPA-induced ornithine decarboxylase (ODC) activity in PE cells; format: cell-based, murine; conditions: 1 μM, 15 minutes pretreatment, p<0.001
Description: (§1) The compounds were tested for growth inhibition of murine keratinocyte cells (cell line PE) and for the inhibition of TPA-induced ornithine decarboxylase (ODC) activity.
The cell line PE was derived from a papilloma induced in female SENCAR mice by a standard skin initiation/promotion protocol (Carcinogenesis, 7:949-958 (1986), the entire contents of which are hereby incorporated by reference) and was chosen for its particular sensitivity to the induction of ornithine decarboxylase (ODC) activity by the extensively characterized tumor promoter TPA. The PE cell line culture medium used in the tests consisted of Eagle's minimal essential medium without calcium chloride supplemented with 8% chelexed fetal calf serum and 1% antibiotic-antimycotic and the addition of CaCl2 to 0.05 mM Ca^++.
100 cm^2 dishes of PE cells were treated with vitamin D3 or analogues dissolved in DMSO by direct addition into the culture medium. Fifteen minutes later, the plates were treated with 100 ng/ml TPA dissolved in ethanol. […]
Cytosolic ODC activity was determined in triplicate by measuring the release of ^14 CO2 from L-[^14 C]ornithine using an Eppendorf microvessel assay as previously described (Cancer Res., 43:2555-2559 (1983), the entire contents of which are hereby incorporated by reference).

[5] = system: ornithine decarboxylase (ODC); conditions: literature; cited from earlier work
U 937 cancer cells [6] = assay: Viability of U 937 cancer cells (Table 5); format: cell-based; conditions: Homo sapiens
[7] = system: murine keratinocyte cells (cell line PE); assay: Growth inhibition of PE keratinocytes (MTT assay); format: cell-based; conditions: for inhibition of proliferation of PE cells: FIG. 7
Description: as §1
The PE cell line culture medium used in the tests consisted of Eagle's minimal essential medium without calcium chloride supplemented with 8% chelexed fetal calf serum and 1% antibiotic-antimycotic and the addition of CaCl2 to 0.05 mM Ca^++.
PE cells were seeded at a density of 5,000 cells/well in 50 μl medium into 96-well microtiter plates. […] The plates were fed once at 48 hours, with the re addition of the vitamin D3 analogues at this time. At 24 hour intervals following the initial treatment of the cells with compounds, 0.1 mg ([…] of a 2 mg/ml solution) of MTT was added to the plates. After 4 hours, the MTT was removed and DMSO added to dissolve the blue formazan dye. Using a microtiter plate reader, the A505 was then determined and cell number calculated from blank-subtracted absorbance values.

calcium channels = assay: Calcium channel opening assay; format: cell-based; conditions: Bay K 1 μM, in the experiments of each compound's line
HL-60 cells = assay: Growth inhibition of HL-60 cells; format: cell-based; conditions: FIG. 8; YA and YB 10^-7 M, others 10^-6 M
Excerpt: YA and YB were at concentrations of 10^-7 M; the other compounds were at concentrations of 10^-6 M.

[8] = in vivo; cited from earlier work
[9] = system: Human lymphoma cells U 937; conditions: relative to calcitriol = 1; cited from earlier work
Lewis rats = conditions: relative to calcitriol = 1; cited from earlier work
[10] = system: Human lymphoma cells U 937; conditions: relative to calcitriol = 1; cited from earlier work; remark: listed apart in the source

C=C1/C(=C\C=C2/CCC[C@]3(C)[C@@H]([C@H](C)CCCC(C)(C)O)CC[C@@H]23)C[C@@H](O)C[C@@H]1CO [(-)-2, 1α-hydroxymethyl-25-hydroxyvitamin D3]
ease of crystallization [1]: easily crystallized
anti-proliferative activity (cell proliferation): did not change the anti- proliferative or cell growth inhibitory activity
solubility in organic solvents [2]: unexpectedly poor solubility; also recorded: only sparingly soluble
binding to the 1,25(OH)2-vitamin D3 receptor (VDR), % of calcitriol's binding (calf thymus VDR): ≤ 2%

C=C1/C(=C\C=C2/CCC[C@]3(C)[C@@H]([C@H](C)/C=C/C=C/C(O)(CC)CC)CC[C@@H]23)C[C@H](O)C[C@H]1CO [MCW 068-Y-EE]
effect on keratinocyte proliferation (keratinocyte): much greater anti proliferative activity than MCW 068-Y-ED
anti-proliferative activity (cell proliferation): comparable to that of calcitriol
VDR binding affinity relative to that of calcitriol (calf thymus VDR): ~ 10^-3

C=C1/C(=C\C=C2/CCC[C@]3(C)[C@@H]([C@H](C)CCCC(C)(C)O)CC[C@@H]23)C[C@@H](O)C[C@@H]1O [Calcitriol, 1α,25-dihydroxyvitamin D3, reference compound]
inducing cell differentiation (in words) (U 937 cancer cells [3]): effective in inducing cell differentiation
inhibition of TPA-induced ODC activity [4]: significantly inhibited the effects of TPA
inhibition of TPA-induced ODC activity ([4]; listed as calcitriol): statistically significant reduction in TPA-induced ODC activity
inhibition of TPA effects on ODC induction as well as TPA-stimulated tumor promotion [5]: shown to inhibit TPA effects on ODC induction
viability at 0.1 µM (U 937 cancer cells [6]): 99%
growth inhibition of PE cells, comparison of potency ([7]; calcitriol vs 1-hydroxymethyl derivatives): equipotent at inhibiting growth of PE cells

C=C1/C(=C\C=C2/CCC[C@]3(C)C([C@H](C)CC#CC(C)(C)O)=CC[C@@H]23)C[C@@H](O)C[C@@H]1CO [JK III 7-1]
effect on keratinocyte proliferation (keratinocyte): appears ineffective in reducing cell proliferation

COC(=O)C1=C(C)NC(C)=C([N+](=O)[O-])C1c1ccccc1C(F)(F)F (stereo not shown) [Bay K, reference compound]
Average peak shift compared to control (calcium channels): 28.3 ± 5.6 mV and 29.0 ± 1.4 mV and 26.3 ± 4.5 mV and 27.9 ± 5.3 mV

C=C1/C(=C\C=C2/CCC[C@]3(C)[C@@H]([C@@H](C)CSc4cccc(C(C)(C)O)c4)CC[C@@H]23)C[C@H](O)C[C@H]1CO [JK 277-2]
inhibition of growth of HL-60 cells (HL-60 cells): even more effective than YB in inhibiting growth
inhibition of proliferation of PE cells [7]: inhibited proliferation of PE cells; also recorded: at much lower concentrations than their corresponding 1α,3β-stereoisomers
Amount Bound (amount that results in 50% displacement of [^3 H]-1,25(OH)2 D3 from VDR) (calf thymus VDR): 40 ng
times less strongly bound to VDR than 1,25(OH)2 D3 (calf thymus VDR): ~3750 times
VDR binding affinity relative to that of calcitriol (calf thymus VDR): less than 10^-3

C=C1/C(=C\C=C2/CCC[C@]3(C)[C@@H]([C@@H](C)COCCCC(C)(C)O)CC[C@@H]23)C[C@H](O)C[C@H]1CO [JK 276-2]
inhibition of growth of HL-60 cells (HL-60 cells): even more effective than YB in inhibiting growth
inhibition of proliferation of PE cells [7]: inhibited proliferation of PE cells; also recorded: at much lower concentrations than their corresponding 1α,3β-stereoisomers
Amount Bound (amount that results in 50% displacement of [^3 H]-1,25(OH)2 D3 from VDR) (calf thymus VDR): 22.5 ng
times less strongly bound to VDR than 1,25(OH)2 D3 (calf thymus VDR): about 1500 times
VDR binding affinity relative to that of calcitriol (calf thymus VDR): less than 10^-3

C=C1/C(=C\C=C2/CCC[C@]3(C)[C@@H]([C@@H](C)CSc4cccc(C(C)(C)O)c4)CC[C@@H]23)C[C@@H](O)C[C@@H]1CO [JK 277-1]
inhibition of growth of HL-60 cells (HL-60 cells): more modest effect
inhibition of proliferation of PE cells [7]: inhibited proliferation of PE cells
Amount Bound (amount that results in 50% displacement of [^3 H]-1,25(OH)2 D3 from VDR) (calf thymus VDR): 1450 ng
VDR binding affinity relative to that of calcitriol (calf thymus VDR): less than 10^-3

C=C1/C(=C\C=C2/CCC[C@]3(C)[C@@H]([C@@H](C)CSc4cccc(C(C)(C)O)c4)CC[C@@H]23)C[C@@H](O)C[C@@H]1O [GS 1500]
serum half-life [8]: very short serum half-life

C=C1/C(=C\C=C2/CCC[C@]3(C)[C@@H]([C@H](C)/C=C/[C@@H](O)C4CC4)CC[C@@H]23)C[C@@H](O)C[C@@H]1O [Mc-903 (Calcipotriol)]
Relative Potency, Inhibition of Proliferation [9]: 1.3
Relative Potency, Calcemic Effects (Lewis rats): < 0.01
Relative Potency, Induction of Differentiation [10]: 1

C=C1/C(=C\C=C2/CCC[C@]3(C)C([C@H](C)CC#CC(C)(C)O)=CC[C@@H]23)C[C@H](O)C[C@H]1CO [JK III 7-2]
effect on keratinocyte proliferation (keratinocyte): equal to or greater than calcitriol
anti-proliferative activity (cell proliferation): comparable to that of calcitriol
VDR binding affinity relative to that of calcitriol (calf thymus VDR): ~ 10^-3

C=C1/C(=C\C=C2/CCC[C@]3(C)[C@@H]([C@@H](C)OCCCC(O)(CC)CC)CC[C@@H]23)C[C@H](O)C[C@H]1CCF [RHH 045 B, 1α- and 1β-(2-Fluoroethyl)-25-hydroxyvitamin D3 Homologs]
effect on keratinocyte proliferation (keratinocyte): far more effective in inhibiting cell proliferation
anti-proliferative activity (cell proliferation): comparable to that of calcitriol
VDR binding affinity relative to that of calcitriol (calf thymus VDR): ~ 10^-3

C=C1/C(=C\C=C2/CCC[C@]3(C)[C@@H]([C@H](C)/C=C/C=C/C(O)(CC)CC)CC[C@@H]23)C[C@@H](O)C[C@@H]1O [EB1089]
Relative Potency, Inhibition of Proliferation [9]: 68
Relative Potency, Calcemic Effects (Lewis rats): 0.4
Relative Potency, Induction of Differentiation [10]: 67

C=C1/C(=C\C=C2/CCC[C@]3(C)[C@@H]([C@H](C)CCCC(C)(C)O)CC[C@@H]23)C[C@H](O)C[C@H]1CO [(+)-3, 1β-hydroxymethyl-3β-norhydroxy-3α, 25-dihydroxyvitamin D3]
ease of crystallization [1]: very difficult to crystallize
anti-proliferative activity (cell proliferation): did not change the anti- proliferative or cell growth inhibitory activity
binding to the 1,25(OH)2-vitamin D3 receptor (VDR), % of calcitriol's binding (calf thymus VDR): ≤ 2%

C=C1/C(=C\C=C2/CCC[C@]3(C)[C@@H]([C@@H](C)COCCCC(C)(C)O)CC[C@@H]23)C[C@@H](O)C[C@@H]1CO [JK 276-1]
inhibition of growth of HL-60 cells (HL-60 cells): more modest effect
inhibition of proliferation of PE cells [7]: inhibited proliferation of PE cells
Amount Bound (amount that results in 50% displacement of [^3 H]-1,25(OH)2 D3 from VDR) (calf thymus VDR): 1650 ng
VDR binding affinity relative to that of calcitriol (calf thymus VDR): less than 10^-3
